The record followed here is patent publication US20100130598A1, “METHODS FOR INDUCING PROGRAMMED CELL DEATH” (Novogen Research Pty Ltd., priority 2008, published 2010).

Each structure is given as a SMILES string.

The subject of experiment [1] is Caspase 2, 3 and 9 in HPAC cells. As to the kind of experiment: In situ caspase activity by flow cytometry, HPAC. The format is cell-based, human. As to the method:
(§1) Cells. Human pancreatic cell lines HPAC, MIAPaCa-2 and PANC-1 were obtained from the ATCC. (Manassas, Va.). The cells were maintained in DMEM media with Gln and high glucose (Mediatech, Manassas, Va.) with 10% fetal bovine serum (FBS, HyClone, Logan, Utah) and pencillin/streptomycin.
[…] The cells were incubated with caspase substrates for 1 h at 37° C., 5% CO2, then probed with Annexin-V-Cy5 and sytox blue. Caspase +ve cells were gated as shown in the histograms and these cells are indicated on the Annexin-V-Cy5/sytox blue spectra as blue cells. In situ caspase activity was assayed using fluorescent substrates. For Caspase 2, FITC-VDVAD-fmk (Biovision K182-100), for Caspase 3, FITC-DEVD-fmk (K183-100) and for Caspase 9, FITC-LEHD-fmk (K199-100) was used. These substrates bind irreversibly to their respective activated caspases, and caspase activation was quantitated by flow cytometry. After 1 hr incubation at 37° C. in 5% CO2, the cells were washed with DPBS containing 5% FBS and resuspended in Annexin-V binding buffer containing Annexin-V-Cy5 (Biovision K103-3) and sytox blue (Invitrogen), a dye that binds necrotic cells. Caspase activation, apoptosis and necrosis were measured simultaneously using a violet, blue and red laser in a BD LSRII flow cytometer.

Experiment [2] concerns Caspase 2, 3 and 9 in PANC-1 cells. The experiment in a line: In situ caspase activity by flow cytometry, PANC-1. The class given is cell-based, human. Conditions: PANC-1, 10 μM, after 48 hrs. As to the method:
as §1
Caspase Activity After 48 h treatment with 10 μM Compound 10, HPAC, MIAPaCa-2 and PANC-1 cells were harvested by trypsinization and resuspended in DMEM media with 10% FBS. The cells were incubated with caspase substrates for 1 h at 37° C., 5% CO2, then probed with Annexin-V-Cy5 and sytox blue. Caspase +ve cells were gated as shown in the histograms and these cells are indicated on the Annexin-V-Cy5/sytox blue spectra as blue cells. In situ caspase activity was assayed using fluorescent substrates. For Caspase 2, FITC-VDVAD-fmk (Biovision K182-100), for Caspase 3, FITC-DEVD-fmk (K183-100) and for Caspase 9, FITC-LEHD-fmk (K199-100) was used. These substrates bind irreversibly to their respective activated caspases, and caspase activation was quantitated by flow cytometry. […] Caspase activation, apoptosis and necrosis were measured simultaneously using a violet, blue and red laser in a BD LSRII flow cytometer.

`COc1ccc(C2c3ccc(O)cc3OCC2c2ccc(O)cc2)cc1` (stereo not shown) [Compound 10, 3-(4-hydroxyphenyl)-4-(4-methoxyphenyl)chroman-7-ol]: in experiment [1] (10 μM, after 48 hrs), the “caspase 2 and caspase 9 induction” value is given as “neither caspase 2 or caspase 9 were induced”; the caspase-3 induction entry is reported as “modestly induced”. In addition, the “caspase 9 activation” value in experiment [1] (30 μM, data not shown) is on record as “activated”. The “caspase 2, 3 and 9 activation” value in experiment [2] is recorded as “activated”.
